One test concerns the target T1, PDGFRβ tyrosine kinase (Homo sapiens, UniProt P09619).
T1 construct: PDGFRα, PDGFRβ and KDR receptor cytoplasmic domains, obtained by expression of recombinant protein in insect cells; purchased Upstate Biotechnology Inc. 14-463; host or cells: Sf9 insect cells
In words: In vitro enzyme assay (ELISA), Test (a), PDGFRβ. As to conditions: ATP 2.8 μM, read-out: IC50 versus PDGFRβ tyrosine kinase. Format: biochemical. As to the method:
(§1) The ability of test compounds to inhibit the phosphorylation of a tyrosine containing polypeptide substrate by the tyrosine kinase enzymes PDGFRα, PDGFRβ and KDR was assessed using conventional ELISA assays. DNA encoding the PDGFRα, PDGFRβ or KDR receptor cytoplasmic domains may be obtained by total gene synthesis (International Biotechnology Lab., 1987, 5(3), 19-25) or by cloning. The DNA fragments may be expressed in a suitable expression system to obtain polypeptide with tyrosine kinase activity. For example, PDGFRα, PDGFRβ and KDR receptor cytoplasmic domains, obtained by expression of recombinant protein in insect cells, can be shown to display intrinsic tyrosine kinase activity. In the case of the VEGF receptor KDR (Genbank Accession No. L04947), a DNA fragment encoding most of the cytoplasmic domain, commencing with methionine 806 and including the termination codon may be cloned into a baculovirus transplacement vector [for example pAcYM1 (see The Baculovirus Expression System: A Laboratory Guide, L. A. King and R. D. Possee, Chapman and Hall, 1992) or pAc360 or pBlueBacHis (available from Invitrogen Corporation)]. This recombinant construct may be co-transfected into insect cells [for example Spodoptera frugiperda 21(Sf21) or Spodoptera frugiperda 9(Sf9)] with viral DNA (for example Pharmingen BaculoGold) to prepare recombinant baculovirus. […]

In the next test the target is T2, PDGFRα tyrosine kinase (Homo sapiens, UniProt P16234).
T2 construct: PDGFRα, PDGFRβ and KDR receptor cytoplasmic domains, obtained by expression of recombinant protein in insect cells; purchased Upstate Biotechnology Inc. 14-467; host or cells: Sf9 insect cells
In words: In vitro enzyme assay (ELISA), Test (a), PDGFRα. Format: biochemical. As to conditions: ATP 14 μM, read-out: IC50 versus PDGFRα tyrosine kinase. As to the method: as §1

T1 sequence (P09619 554-1106 limits assumed): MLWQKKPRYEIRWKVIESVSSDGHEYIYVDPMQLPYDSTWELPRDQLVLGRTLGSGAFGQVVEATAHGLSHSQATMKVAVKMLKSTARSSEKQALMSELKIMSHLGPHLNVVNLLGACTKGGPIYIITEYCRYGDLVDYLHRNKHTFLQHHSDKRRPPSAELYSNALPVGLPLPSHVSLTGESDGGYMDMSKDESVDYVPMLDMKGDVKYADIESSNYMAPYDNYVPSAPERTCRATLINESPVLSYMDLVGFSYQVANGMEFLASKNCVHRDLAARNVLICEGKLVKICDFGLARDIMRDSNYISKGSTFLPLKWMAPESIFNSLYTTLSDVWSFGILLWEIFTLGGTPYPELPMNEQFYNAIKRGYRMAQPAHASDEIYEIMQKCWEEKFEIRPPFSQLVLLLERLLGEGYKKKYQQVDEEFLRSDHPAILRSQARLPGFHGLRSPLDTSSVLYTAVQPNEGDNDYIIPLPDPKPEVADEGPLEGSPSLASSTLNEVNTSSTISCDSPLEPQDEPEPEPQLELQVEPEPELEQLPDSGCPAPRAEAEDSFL
T2 sequence (P16234 550-1089 limits assumed): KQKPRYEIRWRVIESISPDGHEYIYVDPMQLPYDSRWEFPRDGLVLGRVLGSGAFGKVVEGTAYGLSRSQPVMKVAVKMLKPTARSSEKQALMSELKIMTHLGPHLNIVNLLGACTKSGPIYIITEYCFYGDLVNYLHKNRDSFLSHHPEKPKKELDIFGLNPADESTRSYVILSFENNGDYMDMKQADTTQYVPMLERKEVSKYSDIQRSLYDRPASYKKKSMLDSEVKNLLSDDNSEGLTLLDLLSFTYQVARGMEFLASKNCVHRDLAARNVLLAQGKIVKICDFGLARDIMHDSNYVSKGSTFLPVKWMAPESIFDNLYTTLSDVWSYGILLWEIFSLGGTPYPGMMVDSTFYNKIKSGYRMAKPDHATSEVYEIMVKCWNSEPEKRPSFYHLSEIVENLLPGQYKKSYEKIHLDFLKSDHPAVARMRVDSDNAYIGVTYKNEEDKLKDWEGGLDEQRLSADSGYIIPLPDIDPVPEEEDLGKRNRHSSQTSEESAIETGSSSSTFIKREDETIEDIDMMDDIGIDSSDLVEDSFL

For the compound `COc1cc2ncnc(Oc3cnn(CC(=O)Nc4cccc5c4OCO5)c3)c2cc1OC` [Example 2, N-(2,3-methylenedioxyphenyl)-2-[4-(6,7-dimethoxyquinazolin-4-yloxy)pyrazol-1-yl]acetamide], the IC50 on PDGFRβ tyrosine kinase is ~10 nM; on PDGFRα tyrosine kinase, ~100 nM.

As usually defined, the IC50 is the concentration that gives 50% inhibition.

(Values after patent publication US20090036474A1, “Quinazoline derivatives for use against cancer” (priority 2004, published 2009).)
